These are literature values, as cited in patent US12403129B2, “Isotope-enriched 3-amino-1-propanesulfonic acid derivatives for the treatment of cerebrovascular disease” (RISEN (SUZHOU) PHARMA TECH CO., LTD., priority 2021, dated 2025).

“Also recorded” adds a separate entry of the source.

The conditions of series [1]: cited from earlier work.
The conditions of series [2]: produces three potential metabolites; major metabolite 2-carboxyethanesulfonic acid; cited from earlier work.
Series [3] deals with interaction between PSD95 and nNOS (Homo sapiens, UniProt P29475+P78352). Particulars: by blocking the interaction between PSD95 and nNOS; cited from earlier work.
The mark [4] stands for this setting: 2-h time point, oral, 0.72 mmol/kg.

Chain of interaction between PSD95 and nNOS (P78352 whole entry): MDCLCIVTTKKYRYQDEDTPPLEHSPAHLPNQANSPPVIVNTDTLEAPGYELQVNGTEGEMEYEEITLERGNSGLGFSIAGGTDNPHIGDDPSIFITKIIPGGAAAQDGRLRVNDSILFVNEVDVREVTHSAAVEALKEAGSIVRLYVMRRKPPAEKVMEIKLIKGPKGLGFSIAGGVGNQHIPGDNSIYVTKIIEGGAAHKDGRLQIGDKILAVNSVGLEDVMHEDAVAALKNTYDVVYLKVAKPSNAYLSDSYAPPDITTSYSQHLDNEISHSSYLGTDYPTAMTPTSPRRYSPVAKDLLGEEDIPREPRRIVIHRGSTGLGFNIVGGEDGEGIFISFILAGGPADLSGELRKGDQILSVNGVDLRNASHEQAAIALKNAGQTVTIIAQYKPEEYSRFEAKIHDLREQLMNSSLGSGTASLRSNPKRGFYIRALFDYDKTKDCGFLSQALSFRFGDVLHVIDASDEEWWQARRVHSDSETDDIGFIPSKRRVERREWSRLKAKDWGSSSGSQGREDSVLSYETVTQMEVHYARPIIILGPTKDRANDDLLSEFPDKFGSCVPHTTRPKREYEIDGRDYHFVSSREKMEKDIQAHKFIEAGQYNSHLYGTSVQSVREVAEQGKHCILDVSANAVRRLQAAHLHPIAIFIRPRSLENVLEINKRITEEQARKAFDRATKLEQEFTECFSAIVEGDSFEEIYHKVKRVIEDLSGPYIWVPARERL
Chain of interaction between PSD95 and nNOS (P29475 whole entry): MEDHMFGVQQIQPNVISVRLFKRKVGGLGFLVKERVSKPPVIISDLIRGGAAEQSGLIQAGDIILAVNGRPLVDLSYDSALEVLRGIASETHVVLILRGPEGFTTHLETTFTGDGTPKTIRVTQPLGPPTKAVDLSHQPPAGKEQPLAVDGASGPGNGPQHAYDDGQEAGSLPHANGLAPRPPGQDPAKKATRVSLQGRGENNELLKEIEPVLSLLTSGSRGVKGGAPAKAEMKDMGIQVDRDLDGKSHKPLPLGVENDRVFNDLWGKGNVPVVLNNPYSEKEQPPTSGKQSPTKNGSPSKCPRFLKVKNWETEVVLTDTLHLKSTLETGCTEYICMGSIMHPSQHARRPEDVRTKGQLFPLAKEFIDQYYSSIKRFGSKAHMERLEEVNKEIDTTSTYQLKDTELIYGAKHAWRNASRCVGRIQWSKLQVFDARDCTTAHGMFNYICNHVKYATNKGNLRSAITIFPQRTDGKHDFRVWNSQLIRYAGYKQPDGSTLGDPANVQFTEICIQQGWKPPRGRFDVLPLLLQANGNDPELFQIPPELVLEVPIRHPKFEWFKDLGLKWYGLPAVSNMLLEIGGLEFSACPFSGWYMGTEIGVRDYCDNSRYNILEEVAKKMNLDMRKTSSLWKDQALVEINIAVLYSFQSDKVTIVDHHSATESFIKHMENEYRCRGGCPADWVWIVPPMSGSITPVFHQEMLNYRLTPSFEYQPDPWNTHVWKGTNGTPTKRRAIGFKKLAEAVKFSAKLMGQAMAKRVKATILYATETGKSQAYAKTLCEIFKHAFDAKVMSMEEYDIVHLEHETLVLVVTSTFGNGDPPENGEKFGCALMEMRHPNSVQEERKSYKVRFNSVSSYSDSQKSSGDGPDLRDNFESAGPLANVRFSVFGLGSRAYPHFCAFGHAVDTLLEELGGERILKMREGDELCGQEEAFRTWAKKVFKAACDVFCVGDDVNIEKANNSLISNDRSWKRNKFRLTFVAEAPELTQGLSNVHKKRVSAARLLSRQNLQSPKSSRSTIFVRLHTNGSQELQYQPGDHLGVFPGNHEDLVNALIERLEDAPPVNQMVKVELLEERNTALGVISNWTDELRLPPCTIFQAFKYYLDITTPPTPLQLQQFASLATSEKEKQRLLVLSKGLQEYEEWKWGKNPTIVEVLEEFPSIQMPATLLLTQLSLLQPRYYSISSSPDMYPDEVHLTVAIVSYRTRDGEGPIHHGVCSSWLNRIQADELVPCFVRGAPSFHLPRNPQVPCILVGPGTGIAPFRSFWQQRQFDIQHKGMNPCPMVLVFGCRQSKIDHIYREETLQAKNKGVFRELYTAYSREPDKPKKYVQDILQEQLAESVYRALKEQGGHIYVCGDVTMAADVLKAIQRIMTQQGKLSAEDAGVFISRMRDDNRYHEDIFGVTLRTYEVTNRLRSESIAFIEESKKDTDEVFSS

Consider `[2H]C([2H])(N)CCS(=O)(=O)O` [compound 1, 3-amino-3,3-dideuterium-1-propanesulfonic Acid], for which, in series [1] (setting [4]), the “concentration of metabolite (2-carboxy-1-ethanesulfonic acid) in plasma compared to 3APS (of natural abundance)” value is “much lower” and the “plasma drug concentration compared to 3APS (of natural abundance)” value is “higher”. In addition, in series [1] (mole-equivalent oral dose (0.72 mmol/kg), mouse plasma), the “plasma drug exposure compared to 3APS (of natural abundance)” value is listed as “improved plasma drug exposure significantly”. For the same compound, in series [1] (mole-equivalent oral dose, mouse), the “drug metabolism / metabolic profile compared to 3APS” value was “delayed drug metabolism; also recorded: delayed metabolic profile”.

For the compound `NCCCS(=O)(=O)O` [Tramiprosate, 3-amino-1-propanesulfonic acid], the metabolism in vivo entry in series [2] is given as “extensively metabolized”. The “protection of neurons from ischemic stroke” value in series [3] is listed as “can protect neurons from ischemic stroke”.
